Experimental data as given in BindingDB's records for doi:10.1016/j.bmcl.2010.10.018 (Merck Frosst Centre For Therapeutic Research, 2010).

Assay: Antagonist activity at TP receptor in human platelet assessed as thromboxane A2- induced platelet aggregation

In the case of `C[C@@H](c1ccc(C(F)(F)F)cc1)n1c2c(c3cc(F)cc(S(C)(=O)=O)c31)CCC[C@@H]2CC(=O)O` [2-((R)-6-fluoro-8-(methylsulfonyl)-9-((S)-1-(4-(trifluoromethyl)phenyl)ethyl)-2,3,4,9-tetrahydro-1H-carbazol-1-yl)acetic acid], the IC50 is reported as 19.4 µM.
